Results on one sequence are retold here after patent US11369665B2, “Anti-inflammatory peptides and composition comprising the same” (GemVax & KAEL Co., Ltd., priority 2012, dated 2022).

One assay deals with reactive oxygen species. The assay can be described thus: Reactive oxygen species by DCF-DA staining in neural stem cells. Format: cell-based, rat. The settings on record: 20 μM amyloid-β protein, PEP-1 1 μM, 10 μM, 50 μM. How it is done: The mechanism of action of PEP-1's protective effect on apoptosis by amyloid-β protein was investigated. First, it was investigated whether PEP-1 is capable of minimizing the oxidative damage caused by amyloid-β protein. Change in generation of reactive oxygen species after treatment with amyloid-β protein and PEP-1 was observed by using DCF-DA staining (Molecular Probes, Eugene, Oreg.). In the group in which reactive oxygen species increased due to 20 μM of amyloid-β protein, the increased reactive oxygen species decreased by PEP-1 treatment (1 μM, 10 μM, 50 μM) (Refer to FIG. 13).

The test system of assay [1] is Ki67, pAKT, PI3K, HSTF-1 and Bcl-2. The assay can be described thus: Western blot of anti-apoptotic proteins in amyloid-β damaged neural stem cells. Format: cell-based, rat. The conditions noted are these: 20 μM amyloid beta, PEP-1 1, 10 and 50 μM, FIGS. 15A-15F. For orientation: A western blot detects proteins with antibodies after separation by electrophoresis.
The next assay concerns CCL26/MIP4α. Kind of assay: qPCR array in THP-1 cells. Format: cell-based, human. The conditions noted are these: LPS 10 ng/mL, 4 μM PEP-1, 4 h. The method, then: (§1) THP-1 cells (human monocytic leukemia derived cell line) were purchased from ATCC ([…] TYPE CULTURE COLLECTION®, Manassas, Va., USA) and cultured in RPMI-1640 (LIFE TECHNOLOGIES®, Carlsbad, Calif., USA) medium supplemented with 10% FBS (LIFE TECHNOLOGIES®), 1% penicillin/streptomycin (LIFE TECHNOLOGIES®), and 0.05 mM 2-mercaptoethanol (SIGMA-ALDRICH®, St. Louis, Mo., USA) at 37° C. in 5% CO2. THP-1 cells that normally grow in suspension were differentiated into an adherent macrophage-like phenotype in differentiation medium (complete growth medium containing 100 ng/mL phorbol 12-myristate 13-acetate (PMA, SIGMA-ALDRICH®)) for 24 hr. For differentiation, THP-1 cells (3×10^6 cells/plate, ˜95% confluency) were seeded into 10-cm tissue culture plates and incubated in differentiation medium.
(§2) Following differentiation, the macrophage-like THP-1 cells were washed twice using complete growth medium. Then, cells were treated with 10 ng/mL lipopolysaccharide (SIGMA-ALDRICH®) and/or 4 μM PEP-1 for 4 h at 37° C.
(§3) Total RNA was extracted and purified using RNeasy mini kit from QIAGEN® (Valencia, Calif., USA) following manufacturer's protocol. cDNAs were synthesized by reverse transcription using Reverse Transcription System from PROMEGA CORPORATION® (Madison, Wis., USA) according to the manufacturer's protocol.
(§4) Then, cDNA samples from THP-1 cells were used as template for real-time quantitative PCR (qPCR) analysis. For qPCR analysis, RT2 Profiler PCR Array kits were purchased from SABIOSCIENCES®/QIAGEN® (Valencia, Calif. USA). Four different PCR array kits analyzing separate signaling pathways used in the experiment are as follows: human signal transduction pathway finder, human inflammatory cytokines & receptors, human transcription factors, human NF-κB signaling pathway. PCR was performed with SYBR® Green qPCR detection system (QIAGEN®) using a BIO-RAD® (Hercules, Calif., USA) CFX 96 real-time PCR instrument. Thermocycling conditions were: 95° C. for 10 sec; 55° C. for 30 sec; 95° C. for 10 min; 95° C. for 10 sec, 55° C. for 30 sec, and 72° C. for 30 sec for 50 amplification cycles. Data represents the average value from three independent experiments, and % decrease was determined by the target gene expression in LPS treated samples vs. LPS+PEP-1 treated samples. Among 336 genes analyzed, only those showing statistically significant (p<0.05, student's t-test) % decrease were shown in table 7.

Another assay relates to TNFR11B. Kind of assay: qPCR array in THP-1 cells. It counts as cell-based, human. The settings on record: LPS 10 ng/mL, 4 μM PEP-1, 4 h. The method, then: as §1, §2, §3, §4
For orientation: Quantitative PCR measures a nucleic acid by following its amplification.

The next assay deals with BCL10. The assay can be described thus: qPCR array in THP-1 cells. The settings on record: LPS 10 ng/mL, 4 μM PEP-1, 4 h. Format: cell-based, human. How it is done:
as §1, §2, §3, §4

The subject of the next assay is TNFα. The assay can be described thus: qPCR array in THP-1 cells. The conditions noted are these: LPS 10 ng/mL, 4 μM PEP-1, 4 h. Format: cell-based, human. How it is done: as §1, §2, §3, §4
The test system of a further assay is CD40Ligand. Kind of assay: qPCR array in THP-1 cells. It counts as cell-based, human. The conditions noted are these: LPS 10 ng/mL, 4 μM PEP-1, 4 h. The method, then:
as §1, §2, §3, §4

Another assay deals with G-CSF. Kind of assay: qPCR array in THP-1 cells. Format: cell-based, human. The settings on record: LPS 10 ng/mL, 4 μM PEP-1, 4 h. How it is done: as §1, §2, §3, §4
The next assay has as its system IkBα. The assay can be described thus: qPCR array in THP-1 cells. The settings on record: LPS 10 ng/mL, 4 μM PEP-1, 4 h. It counts as cell-based, human. The method, then:
as §1, §2, §3, §4

For assay [2], the system named is ACSL5 (acyl-coA synthase). The assay can be described thus: qPCR array in THP-1 cells. It counts as cell-based, human. The settings on record: LPS 10 ng/mL, 4 μM PEP-1, 4 h. The method, then: as §1, §2, §3, §4
For another assay, the system named is IL10. Kind of assay: qPCR array in THP-1 cells. The settings on record: LPS 10 ng/mL, 4 μM PEP-1, 4 h. Format: cell-based, human. The method, then:
as §1, §2, §3, §4

The next assay concerns ILlRa. The assay can be described thus: qPCR array in THP-1 cells. It counts as cell-based, human. The conditions noted are these: LPS 10 ng/mL, 4 μM PEP-1, 4 h. How it is done: as §1, §2, §3, §4
The next assay concerns CCL4/MIP1β. Kind of assay: qPCR array in THP-1 cells. Format: cell-based, human. The conditions noted are these: LPS 10 ng/mL, 4 μM PEP-1, 4 h. The method, then:
as §1, §2, §3, §4

The test system of a further assay is GM-CSF. Kind of assay: qPCR array in THP-1 cells. It counts as cell-based, human. The settings on record: LPS 10 ng/mL, 4 μM PEP-1, 4 h. The method, then:
as §1, §2, §3, §4

The next assay concerns IL17C. The assay can be described thus: qPCR array in THP-1 cells. Format: cell-based, human. The settings on record: LPS 10 ng/mL, 4 μM PEP-1, 4 h. How it is done: as §1, §2, §3, §4
Assay [3] concerns Bax, GSKβ, Cytochrom-c, caspase-3. Kind of assay: Western blot of apoptotic signals in amyloid-β damaged neural stem cells. Format: cell-based, rat. The conditions noted are these: 20 μM amyloid beta, PEP-1 1, 10 and 50 μM, FIGS. 15D, 15G-15I.

Regarding EARPALLTSRLRFIPK [PEP-1], in the assay on reactive oxygen species, the “reactive oxygen species increased by amyloid-β” value is reported as “decreased”. For the same sequence, the “protein expression levels of anti-apoptotic proteins Ki67, pAKT, PI3K, HSTF-1, Bcl-2” value in [1] is given as “increased the protein expression levels”. Further, in the assay on CCL26/MIP4α, the “CCL26/MIP4α % Decrease by PEP 1 (LPS + PEP-1/LPS), p < 0.05” value is “↓↓↓42%”. Also, the “TNFR11B % Decrease by PEP 1 (LPS + PEP-1/LPS), p < 0.05” value in the assay on TNFR11B was “↓↓↓38%”. For the same sequence, the “BCL10 % Decrease by PEP 1 (LPS + PEP-1/LPS), p < 0.05” value with BCL10 is “↓↓32%”. The “TNFα % Decrease by PEP 1 (LPS + PEP-1/LPS), p < 0.05” value with TNFα is on record as “↓↓34%”. Besides, in the assay on CD40Ligand, the “CD40Ligand % Decrease by PEP 1 (LPS + PEP-1/LPS), p < 0.05” value was “↓18%”. For the same sequence, the “G-CSF % Decrease by PEP 1 (LPS + PEP-1/LPS), p < 0.05” value in the assay on G-CSF was “↓↓↓48%”. The “IkBα % Decrease by PEP 1 (LPS + PEP-1/LPS), p < 0.05” value with IkBα is “↓↓27%”. Besides, the “ACSL5 (acyl-coA synthase) % Decrease by PEP 1 (LPS + PEP-1/LPS), p < 0.05” value in assay [2] is on record as “↓17%”. The “IL10 % Decrease by PEP 1 (LPS + PEP-1/LPS), p < 0.05” value in the assay on IL10 was “↓↓32%”. The “ILlRa % Decrease by PEP 1 (LPS + PEP-1/LPS), p < 0.05” value in the assay on ILlRa is recorded as “↓20%”. In the assay with CCL4/MIP1β, the “CCL4/MIP1β % Decrease by PEP 1 (LPS + PEP-1/LPS), p < 0.05” value was “↓22%”. The “GM-CSF % Decrease by PEP 1 (LPS + PEP-1/LPS), p < 0.05” value with GM-CSF was “↓↓29%”. Besides, the “IL17C % Decrease by PEP 1 (LPS + PEP-1/LPS), p < 0.05” value in the assay on IL17C is “↓↓35%”. Moreover, the “protein expression levels of apoptotic signals Bax, GSKβ, Cytochrom-c, caspase-3” value in assay [3] is listed as “decreased the protein expression levels”.
